From patent US9050341B2, “Methods of treating drug resistant and other tumors by administering 6,7-dialkoxy quinazoline derivatives” (NATCO PHARMA LIMITED, priority 2009, dated 2015)

Legend:
Assay in all cases: KinomeScan kinase profiling
Assay type in all cases: binding
BRSK2 = molecular target: T1, BRSK2 (Homo sapiens, UniProt Q8IWQ3)
T1 construct: purchased Ambit Biosciences Corp (KinomeScan); host or cells: E. coli host derived from the BL21 strain, T7 phage
Outline: (§1)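 Kinases were expressed as T7 phage fusions in a BL21-derived E. coli host and the cleared lysates were used. Ligand beads were blocked with biotin and buffer (1% BSA, 0.05% Tween 20, 1 mM DTT). Compounds came from 40× DMSO stocks, and phage in the eluates was titred by qPCR.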

CAMK4 = molecular target: T2, CAMK4 (Homo sapiens, UniProt Q16566)
T2 construct: host or cells: T7 phage in E. coli (BL21-derived)
T2 sequence (Q16566 whole entry): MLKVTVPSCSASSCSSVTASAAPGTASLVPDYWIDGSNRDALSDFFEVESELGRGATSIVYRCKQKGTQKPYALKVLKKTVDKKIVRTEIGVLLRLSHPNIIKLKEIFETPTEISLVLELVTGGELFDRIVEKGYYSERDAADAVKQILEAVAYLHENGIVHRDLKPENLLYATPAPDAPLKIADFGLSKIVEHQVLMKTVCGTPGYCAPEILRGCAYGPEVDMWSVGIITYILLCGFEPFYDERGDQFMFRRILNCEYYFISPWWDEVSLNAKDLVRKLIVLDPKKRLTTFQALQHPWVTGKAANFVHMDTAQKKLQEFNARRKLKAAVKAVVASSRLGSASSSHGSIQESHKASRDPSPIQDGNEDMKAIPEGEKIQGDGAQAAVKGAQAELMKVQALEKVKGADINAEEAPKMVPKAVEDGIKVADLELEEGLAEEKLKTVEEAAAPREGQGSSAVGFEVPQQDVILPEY
Outline: as §1

CLK3 = molecular target: T3, CLK3 (Homo sapiens, UniProt P49761)
T3 construct: host or cells: T7 phage in E. coli (BL21-derived)
Outline: as §1

DLK = molecular target: T4, DLK (Homo sapiens, UniProt Q12852)
T4 construct: purchased Ambit Biosciences Corp (KinomeScan); host or cells: T7 phage in E. coli host derived from BL21
Outline: as §1

EGFR (L858R) = molecular target: T5, EGFR (L858R) (Homo sapiens, UniProt P00533, L858R)
T5 construct: host or cells: E. coli host derived from BL21, T7 phage lysate
Outline: as §1

EPHA3 = molecular target: T6, EPHA3 (Homo sapiens, UniProt P29320)
T6 construct: host or cells: E. coli host derived from BL21, T7 phage lysate
Outline: as §1

EPHB2 = molecular target: T7, EPHB2 (Homo sapiens, UniProt P29323)
T7 construct: host or cells: E. coli host derived from BL21, T7 phage lysate
T7 sequence (P29323 19-1055): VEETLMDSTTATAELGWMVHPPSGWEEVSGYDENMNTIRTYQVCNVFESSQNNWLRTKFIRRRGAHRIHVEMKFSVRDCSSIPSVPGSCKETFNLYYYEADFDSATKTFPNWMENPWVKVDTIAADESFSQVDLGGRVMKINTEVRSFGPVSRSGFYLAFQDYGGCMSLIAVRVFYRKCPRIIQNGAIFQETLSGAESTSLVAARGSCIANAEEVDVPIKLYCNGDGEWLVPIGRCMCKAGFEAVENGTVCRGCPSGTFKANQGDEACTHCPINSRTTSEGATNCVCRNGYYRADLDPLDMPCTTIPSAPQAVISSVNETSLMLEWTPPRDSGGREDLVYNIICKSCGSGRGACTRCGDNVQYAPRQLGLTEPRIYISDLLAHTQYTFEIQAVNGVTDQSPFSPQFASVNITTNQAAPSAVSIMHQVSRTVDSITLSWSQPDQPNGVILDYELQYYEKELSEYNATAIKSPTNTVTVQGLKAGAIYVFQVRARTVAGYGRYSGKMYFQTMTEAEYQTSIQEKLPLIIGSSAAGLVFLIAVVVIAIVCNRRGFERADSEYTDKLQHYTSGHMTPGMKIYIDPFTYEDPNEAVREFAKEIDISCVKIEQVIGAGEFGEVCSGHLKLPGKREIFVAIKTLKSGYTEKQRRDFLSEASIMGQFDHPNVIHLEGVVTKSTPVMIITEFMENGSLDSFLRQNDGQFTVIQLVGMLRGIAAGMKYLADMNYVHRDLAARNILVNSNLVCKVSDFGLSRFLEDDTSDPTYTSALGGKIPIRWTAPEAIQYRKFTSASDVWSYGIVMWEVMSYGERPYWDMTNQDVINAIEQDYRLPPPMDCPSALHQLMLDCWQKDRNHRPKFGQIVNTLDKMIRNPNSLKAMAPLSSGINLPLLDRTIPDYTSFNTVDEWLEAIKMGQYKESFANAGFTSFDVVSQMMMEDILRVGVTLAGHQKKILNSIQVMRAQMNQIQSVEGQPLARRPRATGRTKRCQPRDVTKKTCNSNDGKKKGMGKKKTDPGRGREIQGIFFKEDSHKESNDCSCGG
Outline: as §1

FLT1 = molecular target: T8, FLT1 (Homo sapiens, UniProt P17948)
T8 construct: host or cells: E. coli host derived from BL21, infected with T7 phage
Outline: as §1

GSK3A = molecular target: T9, GSK3A (Homo sapiens, UniProt P49840)
T9 construct: host or cells: E. coli host derived from BL21, infected with T7 phage
Outline: as §1

KIT (V559D, T670I) = molecular target: T10, KIT (V559D, T670I) (Homo sapiens, UniProt P10721, T670I/V559D)
T10 construct: host or cells: T7 phage in E. coli host derived from BL21
Outline: as §1

LATS1 = molecular target: T11, LATS1 (Homo sapiens, UniProt O95835)
T11 construct: host or cells: T7 phage in E. coli host derived from BL21
T11 sequence (O95835 whole entry): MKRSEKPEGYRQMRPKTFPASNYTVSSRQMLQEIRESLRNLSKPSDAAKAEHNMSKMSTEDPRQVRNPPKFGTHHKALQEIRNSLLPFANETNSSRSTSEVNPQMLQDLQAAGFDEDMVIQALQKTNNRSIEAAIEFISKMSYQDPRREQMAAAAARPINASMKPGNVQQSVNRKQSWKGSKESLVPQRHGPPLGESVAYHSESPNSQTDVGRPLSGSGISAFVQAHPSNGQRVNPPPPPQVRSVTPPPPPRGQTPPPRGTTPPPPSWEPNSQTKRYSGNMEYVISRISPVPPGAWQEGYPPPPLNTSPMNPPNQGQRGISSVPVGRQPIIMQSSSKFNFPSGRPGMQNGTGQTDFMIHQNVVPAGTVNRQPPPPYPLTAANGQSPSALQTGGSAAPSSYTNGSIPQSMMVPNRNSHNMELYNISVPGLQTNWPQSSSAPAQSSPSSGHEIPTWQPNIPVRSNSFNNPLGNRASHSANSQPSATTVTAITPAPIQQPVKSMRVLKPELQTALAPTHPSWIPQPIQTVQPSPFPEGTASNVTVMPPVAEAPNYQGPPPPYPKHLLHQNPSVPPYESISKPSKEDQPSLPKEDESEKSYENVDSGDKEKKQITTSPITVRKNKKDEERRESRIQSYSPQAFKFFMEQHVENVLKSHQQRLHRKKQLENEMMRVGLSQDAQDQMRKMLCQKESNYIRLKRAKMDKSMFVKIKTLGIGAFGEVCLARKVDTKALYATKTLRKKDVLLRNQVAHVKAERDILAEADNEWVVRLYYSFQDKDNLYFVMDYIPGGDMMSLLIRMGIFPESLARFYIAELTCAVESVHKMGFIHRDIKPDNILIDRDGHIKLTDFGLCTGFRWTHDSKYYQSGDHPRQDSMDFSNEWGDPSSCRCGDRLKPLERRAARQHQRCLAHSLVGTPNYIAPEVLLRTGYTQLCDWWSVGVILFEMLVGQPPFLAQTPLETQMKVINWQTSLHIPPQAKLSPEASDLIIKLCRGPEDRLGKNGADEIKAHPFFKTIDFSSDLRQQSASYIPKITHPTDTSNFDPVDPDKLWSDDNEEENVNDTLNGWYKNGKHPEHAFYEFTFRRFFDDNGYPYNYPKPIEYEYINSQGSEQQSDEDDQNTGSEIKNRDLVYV
Outline: as §1

LIMK2 = molecular target: T12, LIMK2 (Homo sapiens, UniProt P53671)
T12 construct: host or cells: T7 phage in E. coli host derived from BL21
Outline: as §1

LOK = molecular target: T13, LOK (Homo sapiens, UniProt O94804)
T13 construct: host or cells: E. coli derived from BL21, infected with T7 phage
Outline: as §1

MAP4K4 = molecular target: T14, MAP4K4 (Homo sapiens, UniProt O95819)
T14 construct: host or cells: E. coli derived from BL21, infected with T7 phage
Outline: as §1

MKNK1 = molecular target: T15, MKNK1 (Homo sapiens, UniProt Q9BUB5)
T15 construct: host or cells: T7 phage in E. coli host derived from BL21
T15 sequence (Q9BUB5 whole entry): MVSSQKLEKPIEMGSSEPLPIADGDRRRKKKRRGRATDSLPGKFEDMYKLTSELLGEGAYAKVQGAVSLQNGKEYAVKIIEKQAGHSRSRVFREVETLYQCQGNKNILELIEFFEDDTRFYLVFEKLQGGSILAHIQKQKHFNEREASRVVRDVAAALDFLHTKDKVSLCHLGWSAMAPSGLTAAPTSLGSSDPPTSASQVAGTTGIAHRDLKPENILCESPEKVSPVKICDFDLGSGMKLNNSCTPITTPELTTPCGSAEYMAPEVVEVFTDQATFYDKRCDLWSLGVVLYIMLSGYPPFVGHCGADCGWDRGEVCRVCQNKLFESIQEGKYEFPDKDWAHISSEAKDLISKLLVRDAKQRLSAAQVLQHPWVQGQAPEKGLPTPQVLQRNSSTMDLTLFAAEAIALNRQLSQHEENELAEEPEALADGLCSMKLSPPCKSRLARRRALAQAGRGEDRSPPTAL
Outline: as §1

MKNK2 = molecular target: T16, MKNK2 (Homo sapiens, UniProt Q9HBH9)
T16 construct: host or cells: T7 phage in E. coli host derived from BL21
Outline: as §1

PCTK2 = molecular target: T17, PCTK2 (Homo sapiens, UniProt Q00537)
T17 construct: host or cells: E. coli host derived from the BL21 strain, infected with T7 phage
T17 sequence (Q00537 whole entry): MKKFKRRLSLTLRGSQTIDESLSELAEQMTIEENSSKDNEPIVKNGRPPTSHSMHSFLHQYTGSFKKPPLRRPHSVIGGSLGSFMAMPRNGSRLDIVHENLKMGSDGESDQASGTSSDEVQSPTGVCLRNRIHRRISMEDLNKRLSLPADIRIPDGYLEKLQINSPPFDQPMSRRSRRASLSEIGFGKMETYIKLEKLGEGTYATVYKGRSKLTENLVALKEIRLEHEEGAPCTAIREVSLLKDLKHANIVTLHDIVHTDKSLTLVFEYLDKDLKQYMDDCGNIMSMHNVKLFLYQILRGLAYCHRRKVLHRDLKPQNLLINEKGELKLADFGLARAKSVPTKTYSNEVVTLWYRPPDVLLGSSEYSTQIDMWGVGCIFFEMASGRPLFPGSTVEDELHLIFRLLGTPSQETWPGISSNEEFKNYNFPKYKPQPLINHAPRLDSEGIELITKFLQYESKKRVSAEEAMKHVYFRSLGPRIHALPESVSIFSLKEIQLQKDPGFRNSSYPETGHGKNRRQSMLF
Outline: as §1

PRKD2 = molecular target: T18, PRKD2 (Homo sapiens, UniProt Q9BZL6)
T18 construct: purchased Ambit Biosciences Corp (KinomeScan); host or cells: E. coli host derived from BL21, infected with T7 phage
T18 sequence (Q9BZL6 whole entry): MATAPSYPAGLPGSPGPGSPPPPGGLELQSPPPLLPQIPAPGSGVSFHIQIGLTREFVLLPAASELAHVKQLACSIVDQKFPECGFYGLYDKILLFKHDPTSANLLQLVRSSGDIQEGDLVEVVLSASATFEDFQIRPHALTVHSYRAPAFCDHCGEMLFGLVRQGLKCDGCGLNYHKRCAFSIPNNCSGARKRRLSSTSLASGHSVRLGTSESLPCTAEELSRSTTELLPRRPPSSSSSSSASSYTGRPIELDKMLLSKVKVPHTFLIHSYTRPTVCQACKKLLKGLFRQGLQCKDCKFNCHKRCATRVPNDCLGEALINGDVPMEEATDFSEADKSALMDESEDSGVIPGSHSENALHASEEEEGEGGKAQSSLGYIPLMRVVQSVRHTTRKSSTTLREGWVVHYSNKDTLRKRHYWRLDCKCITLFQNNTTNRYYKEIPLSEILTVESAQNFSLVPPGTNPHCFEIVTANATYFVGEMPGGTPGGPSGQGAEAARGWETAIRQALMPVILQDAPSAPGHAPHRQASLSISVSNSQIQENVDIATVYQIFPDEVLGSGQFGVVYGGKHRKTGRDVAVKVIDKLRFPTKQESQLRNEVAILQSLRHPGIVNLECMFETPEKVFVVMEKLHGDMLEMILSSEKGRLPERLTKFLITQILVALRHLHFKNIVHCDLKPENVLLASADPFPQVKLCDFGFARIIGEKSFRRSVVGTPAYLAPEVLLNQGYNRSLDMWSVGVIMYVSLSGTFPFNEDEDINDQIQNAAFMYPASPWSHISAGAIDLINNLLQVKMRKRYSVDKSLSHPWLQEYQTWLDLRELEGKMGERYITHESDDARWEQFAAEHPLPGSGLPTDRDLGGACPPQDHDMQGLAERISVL
Outline: as §1

[1] = molecular target: T19, RPS6KA1 (Kin.Dom.-1-N-terminal) (Homo sapiens, UniProt Q15418)
T19 construct: RPS6KA1 (Kin.Dom.-1-N-terminal); host or cells: E. coli host derived from BL21, T7 phage lysate
T19 sequence (Q15418 62-321 limits assumed): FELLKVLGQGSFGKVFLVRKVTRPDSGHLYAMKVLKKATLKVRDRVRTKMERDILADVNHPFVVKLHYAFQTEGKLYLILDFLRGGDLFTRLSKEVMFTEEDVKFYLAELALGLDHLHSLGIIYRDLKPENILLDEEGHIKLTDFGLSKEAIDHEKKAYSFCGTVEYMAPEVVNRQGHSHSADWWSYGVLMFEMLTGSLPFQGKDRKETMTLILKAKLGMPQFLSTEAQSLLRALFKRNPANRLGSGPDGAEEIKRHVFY
Outline: as §1

SYK = molecular target: T20, SYK (Homo sapiens, UniProt P43405)
T20 construct: host or cells: E. coli host derived from the BL21 strain, T7 phage lysate
Outline: as §1

ULK1 = molecular target: T21, ULK1 (Homo sapiens, UniProt O75385)
T21 construct: purchased Ambit Biosciences Corp (KinomeScan); host or cells: E. coli host derived from the BL21 strain (T7 phage lysate)
Outline: as §1

p38-beta = molecular target: T22, p38-beta (Homo sapiens, UniProt Q15759)
T22 construct: host or cells: E. coli host derived from the BL21 strain, infected with T7 phage
Outline: as §1

C#Cc1cccc(Nc2ncnc3cc(OC)c(OCCCN4CCOCC4)cc23)c1 [NRC-2694, N-(3-ethylnylphenyl)-7-methoxy-6-[3-(4-morpholinyl)propoxy]-4-quinazolinamine]
% Ctrl @ 10000 nM (BRSK2): 33 % Ctrl | % Ctrl @ 10000 nM (CAMK4): 92 % Ctrl | % Ctrl @ 10000 nM (CLK3): 45 % Ctrl | % Ctrl @ 10000 nM (DLK): 92 % Ctrl | % Ctrl @ 10000 nM (EGFR (L858R)): 0 % Ctrl | % Ctrl @ 10000 nM (EPHA3): 56 % Ctrl | % Ctrl @ 10000 nM (EPHB2): 83 % Ctrl | % Ctrl @ 10000 nM (FLT1): 64 % Ctrl | % Ctrl @ 10000 nM (GSK3A): 75 % Ctrl | % Ctrl @ 10000 nM (KIT (V559D, T670I)): 28 % Ctrl | % Ctrl @ 10000 nM (LATS1): 91 % Ctrl | % Ctrl @ 10000 nM (LIMK2): 100 % Ctrl | % Ctrl @ 10000 nM (LOK): 0 % Ctrl | % Ctrl @ 10000 nM (MAP4K4): 20 % Ctrl | % Ctrl @ 10000 nM (MKNK1): 1.2 % Ctrl | % Ctrl @ 10000 nM (MKNK2): 16 % Ctrl | % Ctrl @ 10000 nM (PCTK2): 72 % Ctrl | % Ctrl @ 10000 nM (PRKD2): 0.4 % Ctrl | % Ctrl @ 10000 nM [1]: 100 % Ctrl | % Ctrl @ 10000 nM (SYK): 56 % Ctrl | % Ctrl @ 10000 nM (ULK1): 100 % Ctrl | % Ctrl @ 10000 nM (p38-beta): 100 % Ctrl
